Test results from PubChem BioAssay (NCI).
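Dose response: 5 concentrations. Exposure: 48 h. Format: 96-well plates. Endpoint: linear interpolation; highest concentration if not reached. At the GI50, growth is halved. The concentration for full growth arrest is given as TGI.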

Columns and labels:
Assay in all cases: growth of human tumour cells (NCI), 48 h
[1] = system: NCI-H23 lung
[2] = system: MALME-3M melanoma
[3] = system: M14 melanoma
[4] = system: UACC-257 melanoma
[5] = system: OVCAR-8 ovarian
[6] = system: LOX IMVI melanoma
[7] = system: T-47D breast
[8] = system: SF-268 CNS
[9] = system: OVCAR-5 ovarian
[10] = system: HL-60(TB) leukemia
[11] = system: HCC-2998 colon
[12] = system: HOP-92 NSCLC
[13] = system: K-562 leukemia
[14] = system: BT-549 breast
[15] = system: NCI/ADR-RES ovarian
[16] = system: MDA-MB-231 breast
[17] = system: MCF7 breast
[18] = system: NCI-H522 lung
[19] = system: HT29 colon
[20] = system: OVCAR-4 ovarian
[21] = system: SK-MEL-5 melanoma
[22] = system: HOP-62 NSCLC
[23] = system: NCI-H460 lung
[24] = system: CAKI-1 renal
[25] = system: SW-620 colon
[26] = system: HCT-15 colon
[27] = system: RPMI-8226 leukemia
[28] = system: EKVX NSCLC
[29] = system: A549 NSCLC
[30] = system: UACC-62 melanoma

What does the source list for `Cc1ccc(-c2nc(C#N)c(S(=O)(=O)N3CCN(S(C)(=O)=O)CC3)o2)cc1`?
GI50 [1]: 19.3 µM; TGI [1]: > 100 µM; GI50 [2]: > 100 µM; TGI [2]: > 100 µM; GI50 [3]: 26.3 µM; TGI [3]: > 100 µM; GI50 [4]: 60.4 µM; TGI [4]: > 100 µM; GI50 [5]: 23.2 µM; TGI [5]: > 100 µM; GI50 [6]: 2.97 µM; TGI [6]: 16 µM; GI50 [7]: 19.2 µM; TGI [7]: > 100 µM; GI50 [8]: > 100 µM; TGI [8]: > 100 µM; GI50 [9]: > 100 µM; TGI [9]: > 100 µM; GI50 [10]: 65.2 µM; TGI [10]: > 100 µM; GI50 [11]: 53.8 µM; TGI [11]: > 100 µM; GI50 [12]: > 100 µM; TGI [12]: > 100 µM; GI50 [13]: 6.66 µM; TGI [13]: > 100 µM; GI50 [14]: 47.4 µM; TGI [14]: > 100 µM; GI50 [15]: 28 µM; TGI [15]: > 100 µM; GI50 [16]: > 100 µM; TGI [16]: > 100 µM; GI50 [17]: 3.74 µM; TGI [17]: > 100 µM; GI50 [18]: 2.17 µM; TGI [18]: 5.94 µM; GI50 [19]: 37.1 µM; TGI [19]: > 100 µM; GI50 [20]: > 100 µM; TGI [20]: > 100 µM; GI50 [21]: > 100 µM; TGI [21]: > 100 µM; GI50 [22]: > 100 µM; TGI [22]: > 100 µM; GI50 [23]: > 100 µM; TGI [23]: > 100 µM; GI50 [24]: > 100 µM; TGI [24]: > 100 µM; GI50 [25]: 2.48 µM; TGI [25]: 6.92 µM; GI50 [26]: 3.81 µM; TGI [26]: 62.5 µM; GI50 [27]: 26.7 µM; TGI [27]: > 100 µM; GI50 [28]: > 100 µM; TGI [28]: > 100 µM; GI50 [29]: > 100 µM; TGI [29]: > 100 µM; GI50 [30]: > 100 µM
